Source: patent US20210236494A1, “THERAPEUTIC COMBINATION” (Oncologica UK Ltd., priority 2018, published 2021)

Legend:
[1] = test system: HBEpC bronchial epithelial primary cells; assay: Western blotting of whole cell extracts; format: cell-based, human
Procedure: (§1) In addition, whole cell extracts (WCE) were prepared by cell lysis in modified RIPA buffer (50 mmol/L Tris-Cl pH 7.4, 300 mmol/L NaCl, 0.1% NP40, 1% Triton X-100, 0.5% sodium deoxycholate, 0.1% SDS, 5 mmol/L EDTA, 1 mmol/L EGTA, 100 mmol/L sodium fluoride and 1 mmol/L sodium orthovanadate) followed by sonication for 10 seconds. These were analysed by Western Blotting, in which fifty micrograms of protein was loaded in each lane, separated by 4-20% SDS-PAGE, and transferred by semidry electroblotting onto Hybond C Extra nitrocellulose membranes (GE Healthcare, Buckinghamshire, UK).
(§2) Primary antibodies used were: caspase 3 (NB500-210, Novus Biologicals); caspase 9 (sc-17784, Santa Cruz Biotechnology); Cdc7 (K0070-3, MBL International); cyclin A (sc-596, Santa Cruz Biotechnology); cyclin E (MS-870-P, NeoMarkers); Mcm2 pS53 (A300-756A, Bethyl Laboratories); PCNA (610665, BD Biosciences); Rb (554136, BD Biosciences); Rb pS807/811 (9308, Cell Signaling Technologies); TBP (A301-229A, Bethyl Laboratories).
(§3) Blocking, antibody incubations (using various antibodies including anti-Cdc7 or anti-Mcm2 pS53 antibodies), and washing steps were performed.
(§4) Cells were harvested and apoptosis was monitored by phase contrast microscopy, flow cytometry and western blot detection of pro-caspase 3 and 9 cleavage.

[2] = test system: IMR90 mesenchymal diploid fibroblasts; assay: Western blotting of whole cell extracts; format: cell-based, human
Procedure: as §1, §2, §3, §4

HBEpC cells [3] = assay: Flow cytometry of DNA content (cell cycle, sub G1); format: cell-based, human
Procedure: (§5) After 24 hours medium was removed and cells were retransfected with control (20 nmol/L), CDC7 (10 nmol/L) plus control (10 nmol/L), or CDC7 (10 nmol/L) plus p53 (9 nmol/L duplex plus 1 nmol/L SMARTpool) siRNA mixtures. Cells were harvested at the indicated time points after the second transfection. Efficient knockdown was assessed by qRT-PCR and/or Western blot.
(§6) To test this hypothesis, HBEpC bronchial epithelial cells and IMR90 mesenchymal fibroblasts were transfected with CDC7-siRNA or control-siRNA 48 hours prior to treatment with 500 nM paclitaxel or DMSO and then cultured for a further 24 hours. Cells were harvested and apoptosis was monitored by phase contrast microscopy, flow cytometry and western blot detection of pro-caspase 3 and 9 cleavage.

IMR90 cells [4] = assay: Flow cytometry of DNA content (cell cycle, sub G1); format: cell-based, human
Procedure: as §5, §6

HBEpC cells [5] = assay: Apoptosis monitored by phase contrast microscopy; format: cell-based, human; conditions: siRNA (CDC7 or control) 48 hours prior to 500 nM paclitaxel for 24 hours
Procedure: as §6

IMR90 cells [6] = assay: Apoptosis monitored by phase contrast microscopy; format: cell-based, human; conditions: siRNA (CDC7 or control) 48 hours prior to 500 nM paclitaxel for 24 hours
Procedure: as §6

CDC7 mRNA in HBEpC cells = assay: qRT-PCR of CDC7 mRNA after CDC7-siRNA transfection; format: cell-based, human; conditions: 72 hours post-transfection, 25 nM siRNA
Source text: (§7) Cells were then transfected with CDC7-siRNA to inhibit CDC7 expression. Specifically, CDC7 expression was inhibited with custom double-stranded RNA oligos (5′-[…]-3′ (SEQ ID NO 1) and 5′-[…]-3′ (SEQ ID NO 2) Thermo Scientific), using previously described methods (Tudzarove S. et al 2010 supra.). Non-targeting siRNA was used as a negative control (12935-300, Invitrogen). CDC7 or control siRNA duplexes were transfected using Lipofectamine 2000 (11668019, Invitrogen) according to the manufacturer's recommendations at an optimized concentrations of 10 nM for IMR90 and 25 nM for HBEpC.
(§8) At 72 hours post-transfection, CDC7 mRNA levels were measured using qPCR in order to evaluate the efficiency of transfection with CDC7. In particular, Total RNA was isolated from cells with the PureLink Microto-Midi Total RNA Purification System (Invitrogen) according to the manufacturer's instructions. Total RNA (40 ng) was reverse transcribed, and real-time PCR was performed using a SuperScript III Platinum SYBR Green OneStep qRTPCR kit (Invitrogen) following the manufacturer's instructions. Reactions were carried out in an Eppendorf Mastercycler ep Realplex Real-Time PCR System (Eppendorf, Cambridge, UK), and results were analyzed with Realplex v1.5 software (Eppendorf). […]

CDC7 mRNA in IMR90 cells = assay: qRT-PCR of CDC7 mRNA after CDC7-siRNA transfection; format: cell-based, human; conditions: IMR90, 72 hours post-transfection, 10 nM siRNA
Source text: as §7, §8

HBEpC cells [7] = assay: Cell population growth by phase contrast microscopy; format: cell-based, human; conditions: 144 hour time course, plateau 48 to 120 hours post-transfection
Procedure: (§9) Phase contrast microscopy was performed over a period of 144 hours with an inverted Aziover 200m (Carl Zeiss, Welwyn Garden City, Uk) and Axiovision software to assess cell population growth.

IMR90 cells [8] = assay: as above; format: cell-based, human; conditions: IMR90, 144 hour time course; plateau 48 to 120 hours post-transfection
Procedure: as §9

[9] = test system: SKOV-3, Saos-2, BT-549 and NCI-H322M cells; assay: Apoptosis by morphology and western blot of pro-caspase 3 and 9 cleavage in cancer cells; format: cell-based; conditions: 96 hours post-transfection; cancer cells lacking functional p53
Procedure: On this basis, RNAi was then used to investigate the effects of Cdc7 loss in epithelial and mesenchymal cancer cell lines deficient in functional p53. In this experiment, SKOV-3 ovarian carcinoma cells (HTB-77, ATCC) and Saos-2 osteosarcoma cells (HTB-85, ATCC) in McCoy's 5A medium (26600, Invitrogen) supplemented with 15% FBS, BT-549 mammary ductal carcinoma cells (HTB-122, ATCC) in RPMI-1640 medium (52400, Invitrogen) supplemented with 10% FBS and 10 μg/ml insulin (10516, Sigma); and NCI-H322M bronchioalveolar carcinoma cells (95111734, ECACC) in RPMI-1640 medium were used.
Cells were transfected with siRNA as described in Example 1 and the effects on mRNA expression, western blotting and cell population growth were assessed also as described in Example 1.

[10] = siRNA (CDC7 or control) 48 hours prior to 500 nM paclitaxel for 24 hours
[11] = IMR90, siRNA (CDC7 or control) 48 hours prior to 500 nM paclitaxel for 24 hours
[12] = IMR90, 72 hours post-transfection

Row | Compound | pro-caspase 3 and 9 levels [1, 10] | pro-caspase 3 and 9 levels [2, 11] | percentage of cells with less than 2C (sub G1) DNA content (HBEpC cells [3]; [10]) | percentage of cells with less than 2C (sub G1) DNA content (IMR90 cells [4]; [11]) | cell morphology (apoptosis) (HBEpC cells [5]) | cell morphology (apoptosis) (IMR90 cells [6]) | CDC7 mRNA levels reduced relative to control siRNA transfected (CO) cells (CDC7 mRNA in HBEpC cells) | CDC7 mRNA levels reduced relative to control siRNA transfected (CO) cells (CDC7 mRNA in IMR90 cells) | CDC7 protein levels ([1]; 72 hours post-transfection) | Mcm2 phosphorylation at Ser-53 ([1]; 72 hours post-transfection) | CDC7 protein levels [2, 12] | Mcm2 phosphorylation at Ser-53 [2, 12] | cell proliferation (cell numbers) (HBEpC cells [7]) | cell proliferation (cell numbers) (IMR90 cells [8]) | cell cycle distribution (HBEpC cells [3]; 72 hours post-transfection) | cells with less than 2C (sub G1) DNA content (HBEpC cells [3]; Cdc7-depleted alone) | cell cycle distribution (IMR90 cells [4]; [12]) | cells with less than 2C (sub G1) DNA content (IMR90 cells [4]; IMR90, Cdc7-depleted alone) | apoptosis (morphology, cleavage of pro-caspases 3 and 9 in WCE) [9]
1 | CC(=O)O[C@H]1C(=O)[C@@]2(C)[C@H]([C@H](OC(=O)c3ccccc3)[C@]3(O)C[C@H](OC(=O)[C@H](O)[C@@H](NC(=O)c4ccccc4)c4ccccc4)C(C)=C1C3(C)C)[C@]1(OC(C)=O)CO[C@@H]1C[C@@H]2O [paclitaxel] | marked reduction | marked reduction | 30% | 35% | morphological signs of apoptosis | morphological signs of apoptosis | – | – | – | – | – | – | – | – | – | – | – | – | –
2 | CDC7-siRNA: custom double-stranded RNA oligos (5′-GCUCAGCAGGAAAGGUGUUUU-3′ SEQ ID NO 1 and 5′-AACACCUUUCCUGCUGAGCUU-3′ SEQ ID NO 2) inhibiting CDC7 expression (RNA, backbone not given here) | – | – | – | – | – | – | 89% | 87% | undetectable | abolished | undetectable | abolished | cessation of cell proliferation | cessation of cell proliferation | accumulation consistent with a G1 arrest | not detected | accumulation consistent with a G1 arrest | not detected | Induction of apoptosis
